How the values were obtained:
Assay in all cases: Biochemical Assay
[1] = biological target: Epidermal growth factor receptor [T790M,L858R] (Homo sapiens, UniProt P00533, L858R/T790M)
Procedure: (§1) Biochemical Assays for Inhibition of Wild-Type and Mutant EGFRs.The inhibitory activities against EGFR WT, EGFR Δ752-759 mutant, EGFR Δ746-750/T790M mutant, EGFR Δ746-750/C797S mutant, EGFR Δ746-750/T790M/C797S mutant. […] Briefly, specific kinase/substrate pairs along with required cofactors were prepared in reaction buffer; 20 mM Hepes pH 7.5, 10 mM MgCl2, 1 mM EGTA, 0.02% Brij35, 0.02 mg/ml BSA, 0.1 mM Na3VO4, 2 mM DTT, 1% DMSO. Compounds were delivered into the reaction, followed 20 minutes later by addition of a mixture of ATP (Sigma, St. Louis MO) and 33P ATP (Perkin Elmer, Waltham MA) to a final concentration of 10 μM. Reactions were carried out at room temperature for 120 min, followed by spotting of the reactions onto P81 ion exchange filter paper (Whatman Inc., Piscataway, NJ). Unbound phosphate was removed by extensive washing of filters in 0.75% phosphoric acid.

[2] = biological target: Epidermal growth factor receptor [L858R,T790M,C797S] (Homo sapiens, UniProt P00533, C797S/L858R/T790M)
Chain of Epidermal growth factor receptor [L858R,T790M,C797S] (P00533 25-1210 T790M/C797S/L858R limits assumed): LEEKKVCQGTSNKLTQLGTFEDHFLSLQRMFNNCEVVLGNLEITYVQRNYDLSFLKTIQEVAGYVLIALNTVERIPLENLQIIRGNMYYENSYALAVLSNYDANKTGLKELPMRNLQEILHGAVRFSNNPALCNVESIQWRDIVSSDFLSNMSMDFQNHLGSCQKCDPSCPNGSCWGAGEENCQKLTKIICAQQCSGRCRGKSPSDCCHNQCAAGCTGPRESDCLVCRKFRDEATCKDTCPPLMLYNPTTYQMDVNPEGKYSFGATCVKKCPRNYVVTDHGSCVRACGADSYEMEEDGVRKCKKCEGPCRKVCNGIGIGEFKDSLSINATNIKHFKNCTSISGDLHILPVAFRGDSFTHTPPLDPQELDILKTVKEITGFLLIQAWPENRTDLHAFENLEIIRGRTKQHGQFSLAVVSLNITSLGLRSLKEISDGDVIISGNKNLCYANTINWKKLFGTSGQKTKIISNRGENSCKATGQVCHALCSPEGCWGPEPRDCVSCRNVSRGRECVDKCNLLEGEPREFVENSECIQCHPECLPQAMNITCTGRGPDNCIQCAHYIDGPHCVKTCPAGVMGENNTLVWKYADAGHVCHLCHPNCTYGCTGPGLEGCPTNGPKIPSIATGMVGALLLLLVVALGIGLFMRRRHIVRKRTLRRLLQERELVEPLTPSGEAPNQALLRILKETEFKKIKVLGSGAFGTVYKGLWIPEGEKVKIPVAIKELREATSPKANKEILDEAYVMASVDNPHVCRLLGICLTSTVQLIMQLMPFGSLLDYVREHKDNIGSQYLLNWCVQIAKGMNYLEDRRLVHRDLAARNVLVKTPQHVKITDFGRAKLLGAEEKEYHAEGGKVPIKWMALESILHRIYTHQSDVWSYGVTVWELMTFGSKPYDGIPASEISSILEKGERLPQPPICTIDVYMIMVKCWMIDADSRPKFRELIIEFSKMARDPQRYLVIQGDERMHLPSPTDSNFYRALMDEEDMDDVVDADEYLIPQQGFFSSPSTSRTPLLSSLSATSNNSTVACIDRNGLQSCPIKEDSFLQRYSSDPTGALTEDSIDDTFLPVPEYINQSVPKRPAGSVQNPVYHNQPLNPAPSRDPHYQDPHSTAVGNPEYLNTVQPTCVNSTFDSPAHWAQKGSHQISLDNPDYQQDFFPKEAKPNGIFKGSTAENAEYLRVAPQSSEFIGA
Procedure: as §1

[3] = biological target: Epidermal growth factor receptor (Homo sapiens, UniProt P00533)
Procedure: as §1

[4] = biological target: Epidermal growth factor receptor [L858R] (Homo sapiens, UniProt P00533, L858R)
Chain of Epidermal growth factor receptor [L858R] (P00533 25-1210 L858R limits assumed): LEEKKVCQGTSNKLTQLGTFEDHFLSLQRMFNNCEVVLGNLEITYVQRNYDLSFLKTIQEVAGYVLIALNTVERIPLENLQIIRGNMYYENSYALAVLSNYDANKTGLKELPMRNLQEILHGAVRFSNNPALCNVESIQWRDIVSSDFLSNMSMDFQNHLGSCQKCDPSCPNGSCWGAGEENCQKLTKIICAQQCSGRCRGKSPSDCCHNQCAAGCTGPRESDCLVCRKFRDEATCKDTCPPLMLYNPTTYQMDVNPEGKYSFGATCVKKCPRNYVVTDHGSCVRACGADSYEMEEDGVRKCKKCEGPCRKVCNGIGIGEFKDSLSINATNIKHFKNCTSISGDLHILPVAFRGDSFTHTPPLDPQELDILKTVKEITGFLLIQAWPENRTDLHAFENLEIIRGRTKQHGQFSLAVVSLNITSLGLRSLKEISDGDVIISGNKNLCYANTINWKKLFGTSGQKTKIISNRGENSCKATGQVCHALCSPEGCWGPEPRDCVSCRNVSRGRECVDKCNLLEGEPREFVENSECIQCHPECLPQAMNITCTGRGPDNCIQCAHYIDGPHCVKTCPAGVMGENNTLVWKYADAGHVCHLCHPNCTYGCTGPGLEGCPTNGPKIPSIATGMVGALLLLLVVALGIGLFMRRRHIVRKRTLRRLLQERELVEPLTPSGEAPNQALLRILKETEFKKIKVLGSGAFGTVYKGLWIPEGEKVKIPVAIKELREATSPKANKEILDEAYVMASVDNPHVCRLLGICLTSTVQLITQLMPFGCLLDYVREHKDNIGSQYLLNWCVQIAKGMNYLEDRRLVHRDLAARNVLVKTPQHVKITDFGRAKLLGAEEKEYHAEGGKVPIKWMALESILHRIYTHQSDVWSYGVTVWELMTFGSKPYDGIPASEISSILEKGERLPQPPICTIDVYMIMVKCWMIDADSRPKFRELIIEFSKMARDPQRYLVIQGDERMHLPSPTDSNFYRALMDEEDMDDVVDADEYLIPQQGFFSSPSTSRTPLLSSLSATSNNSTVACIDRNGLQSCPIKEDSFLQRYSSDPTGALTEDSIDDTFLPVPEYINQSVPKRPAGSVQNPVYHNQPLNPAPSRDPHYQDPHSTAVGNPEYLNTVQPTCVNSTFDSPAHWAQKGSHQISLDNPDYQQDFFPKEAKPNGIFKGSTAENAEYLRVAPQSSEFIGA
Procedure: as §1

[5] = biological target: Epidermal growth factor receptor [L858R,C797S] (Human, UniProt P00533, C797S/L858R)
Chain of Epidermal growth factor receptor [L858R,C797S] (P00533 25-1210 C797S/L858R limits assumed): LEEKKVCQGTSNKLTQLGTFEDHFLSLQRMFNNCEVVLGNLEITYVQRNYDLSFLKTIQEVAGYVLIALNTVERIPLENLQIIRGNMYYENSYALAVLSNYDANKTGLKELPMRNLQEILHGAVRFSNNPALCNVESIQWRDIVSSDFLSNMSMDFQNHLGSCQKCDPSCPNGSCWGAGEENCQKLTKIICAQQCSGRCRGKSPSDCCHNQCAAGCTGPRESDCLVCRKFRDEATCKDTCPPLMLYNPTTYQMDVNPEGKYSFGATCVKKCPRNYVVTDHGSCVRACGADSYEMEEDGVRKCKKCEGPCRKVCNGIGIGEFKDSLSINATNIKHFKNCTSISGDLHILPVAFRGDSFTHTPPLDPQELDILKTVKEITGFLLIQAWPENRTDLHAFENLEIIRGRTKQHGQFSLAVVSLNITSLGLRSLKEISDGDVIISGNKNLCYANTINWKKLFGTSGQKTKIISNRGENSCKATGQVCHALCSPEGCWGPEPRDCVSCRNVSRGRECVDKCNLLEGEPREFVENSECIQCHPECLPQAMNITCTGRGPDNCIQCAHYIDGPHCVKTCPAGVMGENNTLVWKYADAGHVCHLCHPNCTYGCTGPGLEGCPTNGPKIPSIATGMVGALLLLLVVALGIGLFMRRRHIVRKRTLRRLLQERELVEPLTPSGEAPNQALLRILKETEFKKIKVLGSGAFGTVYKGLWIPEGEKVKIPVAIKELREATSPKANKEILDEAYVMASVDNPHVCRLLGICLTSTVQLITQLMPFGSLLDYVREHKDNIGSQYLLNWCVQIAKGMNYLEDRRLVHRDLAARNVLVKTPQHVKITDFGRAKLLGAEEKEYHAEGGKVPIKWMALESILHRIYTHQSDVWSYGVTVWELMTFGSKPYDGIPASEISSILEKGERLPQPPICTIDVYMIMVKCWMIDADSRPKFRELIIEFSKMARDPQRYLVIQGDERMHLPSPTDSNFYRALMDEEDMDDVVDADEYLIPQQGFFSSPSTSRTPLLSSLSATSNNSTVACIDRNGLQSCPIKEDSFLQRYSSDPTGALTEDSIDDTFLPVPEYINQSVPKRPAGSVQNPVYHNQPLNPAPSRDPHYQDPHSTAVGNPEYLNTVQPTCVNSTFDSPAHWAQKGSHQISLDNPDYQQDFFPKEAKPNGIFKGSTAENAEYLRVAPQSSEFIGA
Procedure: as §1

Chain of Epidermal growth factor receptor [T790M,L858R] (P00533 25-1210 T790M/L858R limits assumed): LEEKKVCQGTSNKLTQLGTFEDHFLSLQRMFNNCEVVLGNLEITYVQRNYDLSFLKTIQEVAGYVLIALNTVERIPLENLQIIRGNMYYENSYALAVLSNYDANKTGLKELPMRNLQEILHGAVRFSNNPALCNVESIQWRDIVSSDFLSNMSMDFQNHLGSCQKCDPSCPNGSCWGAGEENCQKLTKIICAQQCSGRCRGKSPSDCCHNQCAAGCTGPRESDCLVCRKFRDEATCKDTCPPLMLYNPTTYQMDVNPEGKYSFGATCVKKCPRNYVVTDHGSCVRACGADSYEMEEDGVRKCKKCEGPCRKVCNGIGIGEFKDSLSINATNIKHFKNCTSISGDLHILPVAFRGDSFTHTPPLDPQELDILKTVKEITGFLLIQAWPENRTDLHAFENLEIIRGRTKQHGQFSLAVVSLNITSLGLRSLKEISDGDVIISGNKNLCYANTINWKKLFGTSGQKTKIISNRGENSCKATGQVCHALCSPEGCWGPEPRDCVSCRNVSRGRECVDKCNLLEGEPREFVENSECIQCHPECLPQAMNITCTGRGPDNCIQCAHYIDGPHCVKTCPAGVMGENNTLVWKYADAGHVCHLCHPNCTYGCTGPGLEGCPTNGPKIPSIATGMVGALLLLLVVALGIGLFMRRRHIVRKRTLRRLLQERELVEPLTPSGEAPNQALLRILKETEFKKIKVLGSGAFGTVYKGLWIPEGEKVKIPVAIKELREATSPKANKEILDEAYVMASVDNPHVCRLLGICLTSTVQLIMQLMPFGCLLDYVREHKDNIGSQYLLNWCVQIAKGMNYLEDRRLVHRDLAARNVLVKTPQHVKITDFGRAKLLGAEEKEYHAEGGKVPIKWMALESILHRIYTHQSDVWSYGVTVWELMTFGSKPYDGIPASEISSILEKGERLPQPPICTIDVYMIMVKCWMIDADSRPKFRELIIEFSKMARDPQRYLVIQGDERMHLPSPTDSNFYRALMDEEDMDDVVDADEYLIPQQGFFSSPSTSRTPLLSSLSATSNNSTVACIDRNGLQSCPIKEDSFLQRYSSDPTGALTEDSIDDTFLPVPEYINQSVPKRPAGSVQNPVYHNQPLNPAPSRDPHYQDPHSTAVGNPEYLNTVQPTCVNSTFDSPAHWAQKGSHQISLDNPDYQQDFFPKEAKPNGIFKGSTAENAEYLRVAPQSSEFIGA

Row | SMILES | IC50 [1] [nM] | IC50 [2] [nM] | IC50 [3] [nM] | IC50 [4] [nM] | IC50 [5] [nM]
1 | Cn1ncc2c1COCCOc1ccccc1/C=C/c1n[nH]c3cnc-2nc13 [US20240182487, Compound 16] | 168 | 263 | 551 | 350 | 481
2 | CCc1c2c(nn1C)C(=O)N(C)CCOc1c[nH]c(=O)cc1-c1cc3c(n[nH]c3cn1)/C=C/2 [US20240182487, Compound 38] | – | 1130 | – | – | –
3 | CCc1nn(C)c2c1/C=C/c1n[nH]c3cnc(cc13)-c1cc(F)ccc1OCCN(C)C2=O [US20240182487, Compound 62] | 36.3 | 32.4 | 306 | 136 | 104
4 | Cn1ncc2c1COCCOc1ccccc1/C=C/c1n[nH]c3cnc-2cc13 [US20240182487, Compound 63] | 5.8 | 8.8 | 98.4 | 50 | 61.9
5 | CCc1c2c(nn1C)C(=O)N(C)CCCOc1cnc(OC)cc1-c1cc3c(n[nH]c3cn1)/C=C/2 [US20240182487, Compound 64] | – | – | – | > 10000 | –
6 | Cc1ccc2c(n1)/C=C/c1n[nH]c3cnc(nc13)-c1cnn(C)c1C(C)OCCO2 (configuration not stated) [US20240182487, Compound 65] | 23.4 | 91.2 | 438 | 140 | –
7 | CCc1c2c(nn1C)C(=O)N(C)CCOc1cnc(OC)cc1-c1cc3c(n[nH]c3cn1)/C=C/2 [US20240182487, Compound 66] | – | – | – | > 10000 | –
8 | COC(=O)c1ccc2c(c1)OCCOCc1c(cnn1C)-c1cc3c(n[nH]c3cn1)/C=C/2 [US20240182487, Compound 69] | – | 98.3 | – | – | –
9 | CCNC(=O)c1ccc2c(c1)OCCOCc1c(cnn1C)-c1cc3c(n[nH]c3cn1)/C=C/2 [US20240182487, Compound 84] | – | 160 | 884 | 433 | –
10 | CN1CCC(NC(=O)c2ccc3c(c2)OCCOCc2c(cnn2C)-c2cc4c(n[nH]c4cn2)/C=C/3)CC1 [US20240182487, Compound 85] | – | 31 | 140 | 40.7 | –
11 | CN1CC[C@@H](NC(=O)c2ccc3c(c2)OCCOCc2c(cnn2C)-c2cc4c(n[nH]c4cn2)/C=C/3)C1 [US20240182487, Compound 87] | – | 17.2 | 80.1 | 16.3 | –
12 | CN1CCC(NC(=O)c2ccc3c(c2)/C=C/c2n[nH]c4cnc(cc24)-c2cnn(C)c2COCCO3)CC1 [US20240182487, Compound 93] | – | 4.2 | 55.8 | 7.2 | –
13 | CN1CCC(CNC(=O)c2ccc3c(c2)/C=C/c2n[nH]c4cnc(cc24)-c2cnn(C)c2COCCO3)CC1 [US20240182487, Compound 94] | – | 9.9 | 101 | 9.2 | –
14 | Cc1ccc2c(n1)/C=C/c1n[nH]c3cnc(cc13)-c1cnn(C)c1C(C)OCCO2 (configuration not stated) [US20240182487, Compound 95] | – | 35 | 91.6 | 74.9 | –
15 | CN1CCN(C(=O)c2ccc3c(c2)/C=C/c2n[nH]c4cnc(cc24)-c2cnn(C)c2COCCO3)CC1 [US20240182487, Compound 96] | – | 343 | 586 | 470 | –
16 | Cc1nc2cc3c(n[nH]c13)/C=C/c1cc(F)ccc1OCCCOc1c-2cnn1C [US20240182487, Compound 98] | – | 192 | 1240 | 1110 | –
17 | CN1CCOCCN(c2ccc(F)c(Cl)c2)c2cc3c(n[nH]c3cn2)/C=C/c2cn(C)nc2C1=O [US20240182487, Compound 99] | > 10000 | – | 33.5 | 25.5 | 50.2

Now from value to compound:

Row | IC50 [1] [nM] | IC50 [2] [nM] | IC50 [3] [nM] | IC50 [4] [nM] | IC50 [5] [nM] | SMILES
18 | – | 112 | 1000 | 1720 | – | COC(=O)c1ccc2c(c1)OCCCOc1c(cnn1C)-c1cc3c(n[nH]c3cn1)/C=C/2 [US20240182487, Compound 67]
19 | – | 16.6 | 159 | – | – | COC(=O)c1ccc2c(c1)/C=C/c1n[nH]c3cnc(cc13)-c1cnn(C)c1OCCCO2 [US20240182487, Compound 68]
20 | – | 5.3 | 5.9 | 2.2 | – | CN(C)CCCNC(=O)c1ccc2c(c1)/C=C/c1n[nH]c3cnc(cc13)-c1cnn(C)c1OCCCO2 [US20240182487, Compound 70]
21 | – | 64.7 | 48.7 | 23.7 | – | Cn1ncc2c1OCCCOc1ccc(C(=O)N3CCCC3)cc1/C=C/c1n[nH]c3cnc-2cc13 [US20240182487, Compound 72]
22 | – | 220 | 88.6 | 39 | – | Cn1ncc2c1OCCCOc1cc(C(=O)O)ccc1/C=C/c1n[nH]c3cnc-2cc13 [US20240182487, Compound 73]
23 | – | 8.3 | 5.7 | 2.8 | – | CN(C)CCNC(=O)c1ccc2c(c1)OCCCOc1c(cnn1C)-c1cc3c(n[nH]c3cn1)/C=C/2 [US20240182487, Compound 74]
24 | – | 184 | 938 | 165 | – | COC(=O)c1ccc2c(c1)/C=C/c1n[nH]c3cnc(cc13)-c1cnn(C)c1COCCO2 [US20240182487, Compound 75]
25 | – | 3.1 | – | 1.2 | – | CN1CCC(CNC(=O)c2ccc3c(c2)/C=C/c2n[nH]c4cnc(cc24)-c2cnn(C)c2OCCCO3)CC1 [US20240182487, Compound 76]
26 | – | 172 | – | 57.9 | – | CC(C)NC(=O)c1ccc2c(c1)OCCCOc1c(cnn1C)-c1cc3c(n[nH]c3cn1)/C=C/2 [US20240182487, Compound 77]
27 | – | 10.6 | 6.2 | 2.9 | – | CN1CCC(NC(=O)c2ccc3c(c2)OCCCOc2c(cnn2C)-c2cc4c(n[nH]c4cn2)/C=C/3)CC1 [US20240182487, Compound 78]
28 | – | 12 | 9.8 | 5.4 | – | CN1CC[C@@H](NC(=O)c2ccc3c(c2)OCCCOc2c(cnn2C)-c2cc4c(n[nH]c4cn2)/C=C/3)C1 [US20240182487, Compound 82]
29 | – | 13.8 | 11.2 | 6 | – | CN1CC(NC(=O)c2ccc3c(c2)OCCCOc2c(cnn2C)-c2cc4c(n[nH]c4cn2)/C=C/3)C1 [US20240182487, Compound 83]
30 | – | 8.8 | 24.1 | 4.9 | – | CNC(=O)c1ccc2c(c1)/C=C/c1n[nH]c3cnc(cc13)-c1cnn(C)c1OCCCO2 [US20240182487, Compound 86]
31 | – | 10.3 | 19.3 | 4.1 | – | CN1CC[C@H](NC(=O)c2ccc3c(c2)OCCCOc2c(cnn2C)-c2cc4c(n[nH]c4cn2)/C=C/3)C1 [US20240182487, Compound 88]
32 | – | – | 158 | 32 | – | CCNC(=O)c1ccc2c(c1)/C=C/c1n[nH]c3cnc(cc13)-c1cnn(C)c1COCCO2 [US20240182487, Compound 89]
33 | – | 8.6 | 73.7 | 22.2 | – | CN(C)CCNC(=O)c1ccc2c(c1)/C=C/c1n[nH]c3cnc(cc13)-c1cnn(C)c1COCCO2 [US20240182487, Compound 90]
34 | – | 10.2 | 97.2 | 28.2 | – | CN(C)CCCNC(=O)c1ccc2c(c1)/C=C/c1n[nH]c3cnc(cc13)-c1cnn(C)c1COCCO2 [US20240182487, Compound 91]
35 | – | 55.5 | 271 | 66.4 | – | Cn1ncc2c1COCCOc1ccc(C(=O)O)cc1/C=C/c1n[nH]c3cnc-2cc13 [US20240182487, Compound 92]
36 | – | 3.4 | 3.1 | 4.5 | – | CN1CCC(NC(=O)c2ccc3c(c2)/C=C/c2n[nH]c4cnc(cc24)-c2cnn(C)c2OCCCO3)CC1 [US20240182487, Compound 97]
37 | – | 27.5 | 176 | 13.9 | – | Cn1ncc2c1OCCCOc1ccc(F)cc1/C=C/c1n[nH]c3cnc-2cc13 [US20240182487, Compound 100]

— BindingDB's records for patent US20240182487 (Blossomhill Therapeutics, 2024)
